Reference: patent US8048869B2, “Pharmaceutical composition for use in hormone replacement therapy” (Pantarhei Bioscience B.V., priority 2001, dated 2011)

Assays:
[1] = molecular target: T1, human sex Hormone Binding Globulin (SHBG) (Homo sapiens, UniProt P04278); assay: Competitive steroid-binding assay, SHBG; details: [3H]DHT or [3H]estradiol as labeled ligands (FIG. 6)
T1 construct: Human SHBG was purified from transgenic mouse serum, as described previously; from tissue; host or cells: serum of mice transgenic for human SHBG
T1 sequence (P04278 30-402): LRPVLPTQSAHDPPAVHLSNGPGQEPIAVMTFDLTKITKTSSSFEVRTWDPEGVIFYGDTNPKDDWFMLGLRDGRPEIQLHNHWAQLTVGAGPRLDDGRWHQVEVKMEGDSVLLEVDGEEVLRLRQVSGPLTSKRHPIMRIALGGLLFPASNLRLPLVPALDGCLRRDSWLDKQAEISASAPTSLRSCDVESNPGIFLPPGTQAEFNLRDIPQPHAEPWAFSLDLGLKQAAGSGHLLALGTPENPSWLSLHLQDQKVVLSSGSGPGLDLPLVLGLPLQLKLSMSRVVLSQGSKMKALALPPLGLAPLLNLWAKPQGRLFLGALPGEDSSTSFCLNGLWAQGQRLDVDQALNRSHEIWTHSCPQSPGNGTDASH
Experimental: Human SHBG was treated for 30 min at room temperature with a dextran-coated charcoal (DCC) suspension in phosphate buffered saline (PBS) to remove any steroid ligand. After centrifugation (2,000×g for 10 min) to sediment the DCC, the supernatant containing the human SHBG was diluted in PBS to a concentration of 1 nM based on its steroid binding capacity.
After incubation for 1 h at room temperature the. reaction mixtures were placed in an ice bath for a further 15 muin. […] The average amounts of [^3H]labeled ligands bound to SHBG at each concentration of competitor (B) were expressed as a percentage of the average amounts of [^3H]labeled ligands bound to SHBG in the absence of competitor (B0), and were plotted against the concentration of competitor in each assay tube.

OVX-rats [2] = assay: pQCT densitometry of proximal tibiae, ovariectomized aged rat osteoporosis model; format: in vivo; details: po, 0.1 mg/kg/day, 4 weeks, proximal tibiae
Experimental: (§1) The ovariectomized aged rat was used as a model for the human disease osteoporosis. This is an established animal model, recommended by the United States Food and Drug Administration (FDA), to evaluate and assess potential agents for osteoporosis prevention and therapy. The anti-resorptive efficacy of estetrol (E4) was tested by ex vivo measuring total and trabecular bone mineral density and bone strength after 4 weeks of treatment at necropsy. 17α-ethinyl-estradiol (EE) and vehicle (1% ethanol/arachidis oil) served as controls in this bioassay.
(§2) Three months old female Sprague-Dawley rats were either sham-operated (Sham) or ovariectomized (OVX) one day prior to commencement of the dosing study. Animals were anesthetized using a ketamine/xylazine anesthetic mixture and underwent a bilateral ovariectomy or were sham-treated. A section of hair on the dorsal surface was shaved and an incision made overlying the lumbar region of the spine. The skin was separated from the underlying fascia so that a second incision could be made through the abdominal musculature approximately caudal to the kidneys. The ovaries were then exteriorized and removed and the musculature was closed with a single suture. The skin incision was closed using surgical staples.
Ten animals per treatment group were orally dosed once per day for four consecutive weeks. […] Vehicle control was daily administered to one group of OVX-animals and sham-operated rats. After treatment, anesthetized rats were subjected to cardiac puncture and asphyxiated by CO2 inhalation. Tibiae and femura were removed, cleaned of soft-tissue and fixed and stored in 70% ethanol/saline at 4° C. (tibia) or saline at 4° C. (femura) until fuirther analysis.
Ex vivo peripheral Quantitative Computed Tomography (pQCT) was performed on the excised left tibiae using a Stratec XCT-RM and associated software (Stratec Medizintechnik GmbH, Pforzheim; Germany, software version 5.40). The scans were performed at 12% of the total length from the proximal end of the tibiae. The positions were verified using scout views and one 0.5-mm slice perpendicular to the long axis of the tibial shaft was acquired from each site. The scans were analyzed using a threshold for delineation of the external boundary. The total and trabecular bone mineral content, area and density at each site were determined. Furthermore, pQCT data for mean total bone mineral density are depicted in FIG. 1.

OVX-rats [3] = assay: Indentation test of distal femur (bone biomechanical strength), OVX rat; format: in vivo; details: po, 0.1 mg/kg/day, 4 weeks, distal femur
Experimental: as §1, §2
Ten animals per treatment group were orally dosed once per day for four consecutive weeks. The dosing commenced 1 day after surgical removal of the ovaries and was administered by oral gavage using a syringe and stainless steel gavage needle at doses of 0.1 mg/kg /day EE, or either 2.5, 0.5 or 0.1 mg/kg/day E4. Vehicle control was daily administered to one group of OVX-animals and sham-operated rats. After treatment, anesthetized rats were subjected to cardiac puncture and asphyxiated by CO2 inhalation. Tibiae and femura were removed, cleaned of soft-tissue and fixed and stored in 70% ethanol/saline at 4° C. (tibia) or saline at 4° C. (femura) until fuirther analysis.
Ex vivo evaluation of bone biomechanical strength was performed with an indentation test at the distal femura. Prior to mechanical testing femura were rinsed in cold saline and carefully cleaned of any remaining adherent soft tissue. A 3-mm segment of the distal femoral metaphysis was cut directly proximal to the femoral condyle with a low-speed diamond saw under constant saline irrigation. The load was applied with a cylindrical indenter (with a flat testing face of 1.6 mm diameter) to the center of marrow cavity on the distal face of the segment. The indenter was allowed to penetrate the cavity at a constant displacement of 6 mm/min to a depth of 2 mm before load reversal.
The maximum load, stiffness and energy absorbed were determined from load displacement curves. Ultimate strength was calculated by dividing the maximum load by the indenter area. Furthermore, mean ultimate strength values are depicted in FIG. 2. […] Reductions in maximum load, stiffness, energy and ultimate strength were −68%, −68%, −27% and −68%, respectively, clearly accompanying the bone mineral density loss in estrogen deficient rats.

Row | SMILES | relative binding affinity for human SHBG [1] | Mean Total Bone Mineral Area (OVX-rats [2]) | Mean Total Bone Mineral Content (OVX-rats [2]) | Mean Total Bone Mineral Density (OVX-rats [2]) | Mean Trabecular Bone Mineral Area (OVX-rats [2]) | Mean Trabecular Bone Mineral Content (OVX-rats [2]) | Mean Trabecular Bone Mineral Density (OVX-rats [2]) | Energy (OVX-rats [3]) | Maximum load (OVX-rats [3]) | Stiffness (OVX-rats [3]) | Ultimate strength (OVX-rats [3])
1 | C[C@]12CCC(=O)C[C@@H]1CC[C@@H]1[C@@H]2CC[C@]2(C)[C@@H](O)CC[C@@H]12 [5α-dihydrotestosterone] | in this order, show an increased relative binding affinity |  |  |  |  |  |  |  |  |  | 
2 | C#C[C@]1(O)CC[C@H]2[C@@H]3CCc4cc(O)ccc4[C@H]3CC[C@@]21C [EE, 17α-ethinyl estradiol, reference compound] |  | 13.87 mm^2 | 9.66 mg/mm | 697.48 mg/mL | 6.24 mm^2 | 1.81 mg/mm | 290.16 mg/mL | 0.53 mJ | 9.05 N | 169.12 N/mm | 4.80 N/mm2
3 | C[C@]12CC[C@H]3[C@@H](CCC4=CC(=O)CC[C@@]43C)[C@@H]1CC[C@@H]2O [testosterone] | in this order, show an increased relative binding affinity |  |  |  |  |  |  |  |  |  | 
